Measured values taken from PubChem BioAssay (NCI).
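Exposure lasted 48 hours, with cells grown in 96-well plates and compounds tested at five concentrations. TGI marks complete inhibition of growth.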

Tests used:
Test in all cases: DTP human tumour cell line panel, 48 h
NCI-H460 lung = system: NCI-H460 lung
PC-3 prostate = system: PC-3 prostate
SF-295 CNS = system: SF-295 CNS
UO-31 renal = system: UO-31 renal
KM12 colon = system: KM12 colon
HCT-116 colon = system: HCT-116 colon
SK-OV-3 ovarian = system: SK-OV-3 ovarian
HOP-62 NSCLC = system: HOP-62 NSCLC
SNB-19 CNS = system: SNB-19 CNS
CCRF-CEM leukemia = system: CCRF-CEM leukemia

S=c1[nH]n2c(COc3cc(Cl)c(OCc4nnc5sc(=S)[nH]n45)cc3Cl)nnc2s1
TGI (NCI-H460 lung): > 100 µM | TGI (PC-3 prostate): > 100 µM | TGI (SF-295 CNS): > 100 µM | TGI (UO-31 renal): 86.4 µM | TGI (KM12 colon): > 100 µM | TGI (HCT-116 colon): > 100 µM | TGI (SK-OV-3 ovarian): > 100 µM | TGI (HOP-62 NSCLC): > 100 µM | TGI (SNB-19 CNS): > 100 µM

Cc1cc(C)n2c(nc3ccccc32)c1C#N
TGI (PC-3 prostate): > 100 µM | TGI (SF-295 CNS): > 100 µM | TGI (UO-31 renal): > 100 µM | TGI (CCRF-CEM leukemia): > 100 µM | TGI (HCT-116 colon): > 100 µM | TGI (SK-OV-3 ovarian): > 100 µM | TGI (SNB-19 CNS): > 100 µM

Cc1ccc(NC(=O)C(=O)Cc2cccc[n+]2[O-])cc1C
TGI (NCI-H460 lung): > 100 µM | TGI (SF-295 CNS): > 100 µM | TGI (UO-31 renal): > 100 µM | TGI (KM12 colon): > 100 µM | TGI (CCRF-CEM leukemia): > 100 µM | TGI (HCT-116 colon): > 100 µM | TGI (SK-OV-3 ovarian): > 100 µM | TGI (HOP-62 NSCLC): > 100 µM | TGI (SNB-19 CNS): > 100 µM

O=C(NCc1ccccc1Cl)c1c(O)c2ccccc2[nH]c1=O
TGI (NCI-H460 lung): > 100 µM | TGI (PC-3 prostate): > 100 µM | TGI (SF-295 CNS): > 100 µM | TGI (UO-31 renal): 33.4 µM | TGI (KM12 colon): > 100 µM | TGI (CCRF-CEM leukemia): > 100 µM | TGI (HCT-116 colon): > 100 µM | TGI (HOP-62 NSCLC): 41 µM | TGI (SNB-19 CNS): > 100 µM

COc1ccc(C23OCC(Cc4cc(OC)c(OC)cc42)C3CO)cc1OC (stereo not given)
TGI (NCI-H460 lung): > 100 µM | TGI (PC-3 prostate): > 100 µM | TGI (SF-295 CNS): > 100 µM | TGI (UO-31 renal): > 100 µM | TGI (KM12 colon): > 100 µM | TGI (HCT-116 colon): > 100 µM | TGI (SK-OV-3 ovarian): > 100 µM | TGI (HOP-62 NSCLC): > 100 µM | TGI (SNB-19 CNS): > 100 µM

COc1ccc(CC[N+]2(C)COc3cc4oc(=O)cc(C)c4cc3C2)cc1OC (stereo not given)
TGI (PC-3 prostate): > 100 µM | TGI (SF-295 CNS): > 100 µM | TGI (UO-31 renal): > 100 µM | TGI (KM12 colon): > 100 µM | TGI (CCRF-CEM leukemia): > 100 µM | TGI (HCT-116 colon): > 100 µM | TGI (SK-OV-3 ovarian): > 100 µM | TGI (HOP-62 NSCLC): > 100 µM | TGI (SNB-19 CNS): > 100 µM

O=CC1=CCC2c3[nH]c4ccccc4c3CCN2C1 (stereo not given)
TGI (NCI-H460 lung): > 396 µM | TGI (SF-295 CNS): 326 µM | TGI (KM12 colon): 153 µM | TGI (CCRF-CEM leukemia): > 396 µM | TGI (HCT-116 colon): 126 µM | TGI (SK-OV-3 ovarian): > 396 µM | TGI (HOP-62 NSCLC): > 39.6 µM | TGI (SNB-19 CNS): > 396 µM

CSc1nc[nH]c1C(N)=S
TGI (PC-3 prostate): > 100 µM | TGI (SF-295 CNS): > 100 µM | TGI (UO-31 renal): > 100 µM | TGI (KM12 colon): > 100 µM | TGI (HCT-116 colon): > 100 µM | TGI (SK-OV-3 ovarian): > 100 µM | TGI (HOP-62 NSCLC): > 100 µM | TGI (SNB-19 CNS): > 100 µM

CC(C)[C@@H]1NC(=O)[C@@H]2N=C(O[C@H]2C)[C@H](C(C)C)NC(=O)C2N=C1O[C@H]2C
TGI (NCI-H460 lung): > 100 µM | TGI (PC-3 prostate): > 100 µM | TGI (SF-295 CNS): > 100 µM | TGI (UO-31 renal): > 100 µM | TGI (KM12 colon): > 100 µM | TGI (CCRF-CEM leukemia): > 100 µM | TGI (HCT-116 colon): > 100 µM | TGI (HOP-62 NSCLC): > 100 µM | TGI (SNB-19 CNS): > 100 µM

CC1(Cl)CC(C)(/C=C/Cl)C(Cl)CC1Cl (stereo not given)
TGI (NCI-H460 lung): 28.7 µM | TGI (SF-295 CNS): 28.5 µM | TGI (UO-31 renal): 29.8 µM | TGI (KM12 colon): 31.3 µM | TGI (CCRF-CEM leukemia): 59 µM | TGI (HCT-116 colon): 30 µM | TGI (SK-OV-3 ovarian): 66.4 µM | TGI (HOP-62 NSCLC): 34.7 µM | TGI (SNB-19 CNS): 31.4 µM

C=CCN1C(=O)CC(=O)N(NC2=NNC3(C(=O)N2)c2ccccc2-c2ccccc23)C1=S
TGI (NCI-H460 lung): > 100 µM | TGI (PC-3 prostate): > 100 µM | TGI (SF-295 CNS): > 100 µM | TGI (UO-31 renal): > 100 µM | TGI (CCRF-CEM leukemia): > 100 µM | TGI (HCT-116 colon): > 100 µM | TGI (SK-OV-3 ovarian): > 100 µM | TGI (HOP-62 NSCLC): > 100 µM | TGI (SNB-19 CNS): > 100 µM
